Converted amounts (≈) assume the structure as drawn.

Results on three molecules are retold here after publication PMC7731310, “Pogostemon cablin Triggered ROS-Induced DNA Damage to Arrest Cell Cycle Progression and Induce Apoptosis on Human Hepatocellular Carcinoma In Vitro and In Vivo” (Molecules, 2020).

For experiment [1], the system named is BNL CL.2. The experiment in a line: MTT cell viability, BNL CL.2 normal liver cells. The experiment is classed as cell-based. Particulars: Mus musculus, 48 hr, mean ± SD. The procedure: (§1) HCC cells (5 × 10^3/100 μL), SVEC, MDCK (1 × 10^4/100 μL), and BNL CL.2 cells (4 × 10^4/100 μL) were seeded in a 96-well plate. After incubating overnight at 37 ℃, the cells were treated with serially diluted drug concentrations for 24, 48, and 72 h. The cell viability was measured using an MTT assay.

The subject of experiment [2] is MDCK. The experiment in a line: MTT cell viability, MDCK normal cells. The conditions noted are these: Canis lupus familiaris, 48 hr, mean ± SD. It is filed as cell-based, Canine. The procedure:
as §1

Experiment [3] has as its system SVEC. In words: MTT cell viability, SVEC normal cells. The experiment is classed as cell-based. The conditions noted are these: Mus musculus, 48 hr, mean ± SD. The procedure:
as §1

Experiment [4] concerns J5. The experiment in a line: MTT cell viability, J5. It is filed as cell-based, Human. Particulars: for IC50: Homo sapiens, J5, 48 hr, mean ± SD; for Selectivity index (SI) BNL CL.2/J5 / Selectivity index (SI) MDCK/J5 / Selectivity index (SI) SVEC/J5: IC50 of normal cells/IC50 of HCC cells. Here is the method:
as §1

The subject of experiment [5] is Mahlavu. The experiment in a line: MTT cell viability, Mahlavu. The experiment is classed as cell-based, Human. The conditions noted are these: for IC50: Homo sapiens, Mahlavu, 48 hr, mean ± SD; for Selectivity index (SI) BNL CL.2/Mahlavu / Selectivity index (SI) MDCK/Mahlavu / Selectivity index (SI) SVEC/Mahlavu: IC50 of normal cells/IC50 of HCC cells. Here is the method:
as §1

In experiment [6] the test system is Huh7. In words: MTT cell viability, Huh7. It is filed as cell-based, Human. Particulars: for IC50: Homo sapiens, Huh-7, Huh7, 48 hr, mean ± SD; for Selectivity index (SI) BNL CL.2/Huh7 / Selectivity index (SI) MDCK/Huh7 / Selectivity index (SI) SVEC/Huh7: IC50 of normal cells/IC50 of HCC cells. The procedure:
as §1

In experiment [7] the test system is HepG2. In words: MTT cell viability, HepG2. The experiment is classed as cell-based, Human. The conditions noted are these: for IC50: Homo sapiens, HepG2, 48 hr, mean ± SD; for Selectivity index (SI) BNL CL.2/HepG2 / Selectivity index (SI) MDCK/HepG2 / Selectivity index (SI) SVEC/HepG: IC50 of normal cells/IC50 of HCC cells. Here is the method: as §1
Experiment [8] has as its system HepG2 cells. The experiment in a line: Regrowth assay (crystal violet), HepG2. Particulars: PPa extract 15 μg/mL, sorafenib 0.2 μg/mL, 4 and 8 days.
Procedure: (§2) After that, both cell lines were analyzed for flow cytometry. […] During treatments, fresh drugs were changed every two days and harvested the data at 4 and 8 days. After treatment, cells were stained with 0.1% crystal violet and absorbance was measured at 550 nm after dissolving in 0.5% acetic acid. For detection of indicated protein expressions, cells (2 × 10^6) seeded at 10 cm dishes. […] Cell lysates were collected for western blot.
The test system of experiment [9] is Mahlavu cells. In words: Regrowth assay (crystal violet), Mahlavu. The conditions noted are these: PPa extract 15 μg/mL, sorafenib 0.2 μg/mL, 4 and 8 days.
Procedure: as §2

As for `O=c1[nH]cc(F)c(=O)[nH]1` [5-FU, 5-Fluorouracil], the half-inhibitory concentration (IC50) was above 20 µg/mL in experiment [1]; 8.74 ± 0.53 µg/mL (≈ 67.2 µM) in [2]; 1.69 ± 2.8 µg/mL (≈ 13 µM) in experiment [3]; 18.8 ± 0.91 µg/mL (≈ 144 µM) in [4]; 15 ± 3.71 µg/mL (≈ 115 µM) in experiment [5]; 4.88 ± 3.37 µg/mL (≈ 37.5 µM) in [6]. The molecule also displayed an IC50 in [7] of 2.09 ± 1.63 µg/mL (≈ 16.1 µM).

Take `CNC(=O)c1cc(Oc2ccc(NC(=O)Nc3ccc(Cl)c(C(F)(F)F)c3)cc2)ccn1` [SOR, sorafenib]: in experiment [1], the half-inhibitory concentration (IC50) came out at 10.8 ± 5.17 µg/mL (≈ 23.1 µM). The molecule further registered an IC50 in experiment [2] of 6.95 ± 1.45 µg/mL (≈ 15 µM). This molecule also showed an IC50 in [3] of 8.55 ± 2.73 µg/mL (≈ 18.4 µM). Also, in experiment [4], the IC50 was determined as 2.39 ± 1.91 µg/mL (≈ 5.14 µM), the “Selectivity index (SI) BNL CL.2/J5” value was found to be 4.5, the “Selectivity index (SI) MDCK/J5” value came to 2.9 and the “Selectivity index (SI) SVEC/J5” value stood at 3.6. Further, the “inhibition of cell regrowth” value in experiment [8] was “no inhibitory effect”. For the same molecule, the “inhibition of cell regrowth” value in experiment [9] was “no inhibitory effect”. In experiment [5], the IC50 amounted to 6.07 ± 1.06 µg/mL (≈ 13.1 µM), the “Selectivity index (SI) BNL CL.2/Mahlavu” value came to 1.8, the “Selectivity index (SI) MDCK/Mahlavu” value is 1.1 and the “Selectivity index (SI) SVEC/Mahlavu” value is 1.4. Besides, in experiment [6], the IC50 turned out to be 1.77 ± 4.31 µg/mL (≈ 3.81 µM), the “Selectivity index (SI) BNL CL.2/Huh7” value stood at 6.1, the “Selectivity index (SI) MDCK/Huh7” value is on record as 3.9 and the “Selectivity index (SI) SVEC/Huh7” value was determined as 4.8. Also, in experiment [7], the half-maximal inhibitory concentration (IC50) turned out to be 3.52 ± 1.97 µg/mL (≈ 7.57 µM), the “Selectivity index (SI) BNL CL.2/HepG2” value was found to be 3.1, the “Selectivity index (SI) MDCK/HepG2” value was found to be 2.0 and the “Selectivity index (SI) SVEC/HepG” value came to 2.4.

`COc1cc([C@@H]2c3cc4c(cc3[C@@H](O[C@@H]3O[C@@H]5CO[C@@H](C)O[C@H]5[C@H](O)[C@H]3O)[C@H]3COC(=O)[C@H]23)OCO4)cc(OC)c1O` [VP-16, Etoposide] displayed an IC50 in experiment [1] of 6.43 ± 3.02 µg/mL (≈ 10.9 µM). This molecule came in with a 50% inhibitory concentration (IC50) in [2] of 3.38 ± 0.43 µg/mL (≈ 5.74 µM). Also, in experiment [3], the IC50 turned out to be 1.85 ± 0.49 µg/mL (≈ 3.14 µM). Further, in experiment [4], 3.01 ± 2.75 µg/mL (≈ 5.11 µM) corresponded to half-maximal inhibition (IC50), the “Selectivity index (SI) BNL CL.2/J5” value worked out at 2.1, the “Selectivity index (SI) MDCK/J5” value amounted to 1.1 and the “Selectivity index (SI) SVEC/J5” value is 0.6. In addition, in experiment [5], the IC50 came to 4.54 ± 2.17 µg/mL (≈ 7.71 µM), the “Selectivity index (SI) BNL CL.2/Mahlavu” value came out at 1.4, the “Selectivity index (SI) MDCK/Mahlavu” value is 0.8 and the “Selectivity index (SI) SVEC/Mahlavu” value is on record as 0.4. Further, in experiment [6], the IC50 is 5.11 ± 2.08 µg/mL (≈ 8.68 µM), the “Selectivity index (SI) BNL CL.2/Huh7” value stood at 1.3, the “Selectivity index (SI) MDCK/Huh7” value came out at 0.7 and the “Selectivity index (SI) SVEC/Huh7” value is 0.4. For the same molecule, in [7], inhibition was half-maximal at 4.73 ± 3.57 µg/mL (≈ 8.04 µM) (IC50), the “Selectivity index (SI) BNL CL.2/HepG2” value stood at 1.4, the “Selectivity index (SI) MDCK/HepG2” value came to 0.7 and the “Selectivity index (SI) SVEC/HepG” value is on record as 0.4.

As a reminder, the IC50 is the concentration that inhibits the measured activity by half. Low values mean inhibition by little substance, high ones a need for much substance.
